Data from paper PMC13205134, “Design, synthesis, and biological properties exhibited by 1,2,3-triazole based Grp94-selective inhibitors” (European journal of medicinal chemistry, 2025).

Columns and labels:
Hsp90α = Hsp90α (Homo sapiens, UniProt P07900); experiment: Competitive binding fluorescence polarization (FP) assay, Hsp90α; details: FITC-GDA tracer, mean of triplicates ± SD, read-out: Apparent Kd Hsp90α
Procedure: The Fluorescence Polarization Assay (FP) was performed in 96-well flat-bottom plates (Santa Cruz Biotechnology) with a final volume of 100 μL per well. The assay buffer consisted of 20 mM HEPES, 50 mM KCl, 10.5 mM MgCl2, 20 mM Na2MoO4, 0.01 % NP-40 detergent (NP-40), and pH 7.3 with fresh 2 mM dithiothreitol (DTT) and 0.1 mg/mL bovine γ-globulin (BGG). Each well contained 10 nM of Hsp90α or Grp94 (Enzo Biochem Inc.) and 6 nM of FITC-GDA (fluorescent tracer, stock in DMSO). Compounds were tested in triplicate at final concentrations of 100 μM, 10 μM, 1 μM, 0.1 μM and 0.01 μM with each final concentration containing 1 % DMSO. Each plate included control wells containing: (i) buffer only (background polarization), (ii) protein plus tracer (maximum polarization control), and (iii) tracer only (minimum polarization control). Plates were incubated on a rocker at 4 °C for 24 h. Fluorescence polarization (mP units) was measured at 37 °C using excitation and emission wavelengths of 485 and 528 nm, respectively. Apparent Kd values were determined via calculations from the polarization data obtained at which the tracer was displaced by 50 % by the compounds of interest.
[I50] = concentration of free inhibitor at 50% inhibition, [L50] = concentration of free fluorescence labeled ligand molecule at 50% inhibition, [P0] = concentration of free protein at 0% inhibition, K = dissociation constant of the protein−ligand complex.^4

Grp94 = experiment: Competitive binding fluorescence polarization (FP) assay, Grp94; details: selectivity over Hsp90α; n.s. = non-selective
Procedure: The Fluorescence Polarization Assay (FP) was performed in 96-well flat-bottom plates (Santa Cruz Biotechnology) with a final volume of 100 μL per well. […] Each well contained 10 nM of Hsp90α or Grp94 (Enzo Biochem Inc.) and 6 nM of FITC-GDA (fluorescent tracer, stock in DMSO). Compounds were tested in triplicate at final concentrations of 100 μM, 10 μM, 1 μM, 0.1 μM and 0.01 μM with each final concentration containing 1 % DMSO. Each plate included control wells containing: (i) buffer only (background polarization), (ii) protein plus tracer (maximum polarization control), and (iii) tracer only (minimum polarization control). Plates were incubated on a rocker at 4 °C for 24 h.

SMILES	Kd (Hsp90α) [µM]	Fold selective for Grp94 (Grp94)
COC(=O)c1c(O)cc(O)c(Cl)c1CCn1cc(Cc2ccccc2)nn1 [Compound 16, methyl 2-(2-(4-benzyl-1H-1,2,3-triazol-1-yl)ethyl)-3-chloro-4,6-dihydroxybenzoate]	6.79 ± 0.1	n.s.
COC(=O)c1c(O)cc(O)c(Cl)c1CCn1nncc1Cc1ccc(OC)cc1 [Compound 36, methyl 3-chloro-4,6-dihydroxy-2-(2-(5-(4-methoxybenzyl)-1H-1,2,3-triazol-1-yl)ethyl)benzoate]	41.5 ± 7.6	7 fold
COC(=O)c1c(O)cc(O)c(Cl)c1CCn1nncc1Cc1ccc(Cl)c(Cl)c1 [Compound 37, methyl 3-chloro-2-(2-(5-(3,4-dichlorobenzyl)-1H-1,2,3-triazol-1-yl)ethyl)-4,6-dihydroxybenzoate]	6.42 ± 0.45	5 fold
COC(=O)c1c(O)cc(O)c(Cl)c1CCn1nncc1Cc1cccc(Cl)c1 [Compound 38, methyl 3-chloro-2-(2-(5-(3-chlorobenzyl)-1H-1,2,3-triazol-1-yl)ethyl)-4,6-dihydroxybenzoate]	6.33 ± 1.33	3 fold
COC(=O)c1c(O)cc(O)c(Cl)c1CCn1nncc1Cc1ccccc1Cl [Compound 39, methyl 3-chloro-2-(2-(5-(2-chlorobenzyl)-1H-1,2,3-triazol-1-yl)ethyl)-4,6-dihydroxybenzoate]	8.32 ± 2.55	2 fold
CCOc1ccccc1Cc1cnnn1CCc1c(Cl)c(O)cc(O)c1C(=O)OC [Compound 40, methyl 3-chloro-2-(2-(5-(2-ethoxybenzyl)-1H-1,2,3-triazol-1-yl)ethyl)-4,6-dihydroxybenzoate]	8.92 ± 0.16	30 fold
CCOc1cc(Cl)ccc1Cc1cnnn1CCc1c(Cl)c(O)cc(O)c1C(=O)OC [Compound 41, methyl 3-chloro-2-(2-(5-(4-chloro-2-ethoxybenzyl)-1H-1,2,3-triazol-1-yl)ethyl)-4,6-dihydroxybenzoate]	8.9 ± 0.21	12 fold
CCSc1ccccc1Cc1cnnn1CCc1c(Cl)c(O)cc(O)c1C(=O)OC [Compound 43, methyl 3-chloro-2-(2-(5-(2-(ethylthio)benzyl)-1H-1,2,3-triazol-1-yl)ethyl)-4,6-dihydroxybenzoate]	8.53 ± 1.05	43 fold
CCc1ccccc1Cc1cnnn1CCc1c(Cl)c(O)cc(O)c1C(=O)OC [Compound 46, methyl 3-chloro-2-(2-(5-(2-ethylbenzyl)-1H-1,2,3-triazol-1-yl)ethyl)-4,6-dihydroxybenzoate]	9.22 ± 0.48	12 fold
CCCCc1ccccc1Cc1cnnn1CCc1c(Cl)c(O)cc(O)c1C(=O)OC [Compound 48, methyl 2-(2-(5-(2-butylbenzyl)-1H-1,2,3-triazol-1-yl)ethyl)-3-chloro-4,6-dihydroxybenzoate]	6.72 ± 0.15	78 fold

Now those with a lower Kd (Hsp90α), led by results:

Kd (Hsp90α) [µM]	Fold selective for Grp94 (Grp94)	SMILES
0.62 ± 0.04	n.s.	COC(=O)c1c(O)cc(O)c(Cl)c1CCc1cnnn1Cc1ccccc1 [Compound 10, methyl 2-(2-(1-benzyl-1H-1,2,3-triazol-5-yl)ethyl)-3-chloro-4,6-dihydroxybenzoate]
5.24 ± 0.24	8 fold	COC(=O)c1c(O)cc(O)c(Cl)c1CCn1nncc1Cc1ccccc1 [Compound 14, methyl 2-(2-(5-benzyl-1H-1,2,3-triazol-1-yl)ethyl)-3-chloro-4,6-dihydroxybenzoate]
1.63 ± 0.88	3 fold	COC(=O)c1c(O)cc(O)c(Cl)c1CCn1nnnc1Cc1ccccc1 [Compound 20, methyl 2-(2-(5-benzyl-1H-tetrazol-1-yl)ethyl)-3-chloro-4,6-dihydroxybenzoate]
4.72 ± 0.44	2 fold	COC(=O)c1c(O)cc(O)c(Cl)c1CCn1nncc1Cc1ccc(F)cc1 [Compound 31, methyl 3-chloro-2-(2-(5-(4-fluorobenzyl)-1H-1,2,3-triazol-1-yl)ethyl)-4,6-dihydroxybenzoate]
5.7 ± 0.5	9 fold	COC(=O)c1c(O)cc(O)c(Cl)c1CCn1nncc1Cc1ccc(Cl)cc1 [Compound 32, methyl 3-chloro-2-(2-(5-(4-chlorobenzyl)-1H-1,2,3-triazol-1-yl)ethyl)-4,6-dihydroxybenzoate]
3.38 ± 0.33	5 fold	COC(=O)c1c(O)cc(O)c(Cl)c1CCn1nncc1Cc1ccc(Br)cc1 [Compound 33, methyl 2-(2-(5-(4-bromobenzyl)-1H-1,2,3-triazol-1-yl)ethyl)-3-chloro-4,6-dihydroxybenzoate]
6.03 ± 0.37	9 fold	COC(=O)c1c(O)cc(O)c(Cl)c1CCn1nncc1Cc1ccc(C)cc1 [Compound 34, methyl 3-chloro-4,6-dihydroxy-2-(2-(5-(4-methylbenzyl)-1H-1,2,3-triazol-1-yl)ethyl)benzoate]
0.81 ± 0.06	n.s.	CCc1ccc(Cc2cnnn2CCc2c(Cl)c(O)cc(O)c2C(=O)OC)cc1 [Compound 35, methyl 3-chloro-2-(2-(5-(4-ethylbenzyl)-1H-1,2,3-triazol-1-yl)ethyl)-4,6-dihydroxybenzoate]
2.58 ± 0.36	30 fold	CCCOc1ccccc1Cc1cnnn1CCc1c(Cl)c(O)cc(O)c1C(=O)OC [Compound 42, methyl 3-chloro-4,6-dihydroxy-2-(2-(5-(2-propoxybenzyl)-1H-1,2,3-triazol-1-yl)ethyl)benzoate]
4.39 ± 0.17	78 fold	CCCSc1ccccc1Cc1cnnn1CCc1c(Cl)c(O)cc(O)c1C(=O)OC [Compound 44, methyl 3-chloro-4,6-dihydroxy-2-(2-(5-(2-(propylthio)benzyl)-1H-1,2,3-triazol-1-yl)ethyl)benzoate]
2.06 ± 0.87	5 fold	COC(=O)c1c(O)cc(O)c(Cl)c1CCn1nncc1Cc1ccccc1SC(C)C [Compound 45, methyl 3-chloro-4,6-dihydroxy-2-(2-(5-(2-(isopropylthio)benzyl)-1H-1,2,3-triazol-1-yl)ethyl)benzoate]
0.92 ± 0.05	6 fold	COC(=O)c1c(O)cc(O)c(Cl)c1CCn1nncc1Cc1ccccc1CC(C)C [Compound 49, methyl 3-chloro-4,6-dihydroxy-2-(2-(5-(2-isobutylbenzyl)-1H-1,2,3-triazol-1-yl)ethyl)benzoate]
4.32 ± 0.39	70 fold	COC(=O)c1c(O)cc(O)c(Cl)c1CCn1nncc1Cc1ccccc1CCC(F)(F)F [Compound 50, methyl 3-chloro-4,6-dihydroxy-2-(2-(5-(2-(3,3,3-trifluoropropyl)benzyl)-1H-1,2,3-triazol-1-yl)ethyl)benzoate]
